The values that follow come from patent US20120029190A1, “COMPOUNDS FOR TREATING DISORDERS MEDIATED BY METABOTROPIC GLUTAMATE RECEPTOR 5, AND METHODS OF USE THEREOF” (priority 2009, published 2012).

Where two headings read alike, the source gives them in different places. Where only a bound is given, the exact number is not on record here.

The target in the test is T1, human recombinant mGluR5 receptor (Homo sapiens, UniProt P41594).
T1 construct: expressed in transfected cells; expression induced with doxycycline
Nature of the test: mGluR5 in vitro functional assay (aequorin cell line, inhibition of glutamate EC80 response). The conditions noted are these: aequorin cell line expressing human mGluR5, reference agonist glutamate at EC80, obtained in duplicate, read-out: IC50. The class given is cell-based. A digest of the protocol:
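Doxycycline-induced (600 ng/mL, 18 h) aequorin cells loaded with coelenterazine h ≥4 h at room temperature; compound preincubated 3 min before glutamate at EC80. Luminescence recorded, normalized to digitonin or 20 mM ATP wells; % inhibition of EC80 response fitted by sigmoidal nonlinear regression.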

T1 sequence (P41594 21-1212): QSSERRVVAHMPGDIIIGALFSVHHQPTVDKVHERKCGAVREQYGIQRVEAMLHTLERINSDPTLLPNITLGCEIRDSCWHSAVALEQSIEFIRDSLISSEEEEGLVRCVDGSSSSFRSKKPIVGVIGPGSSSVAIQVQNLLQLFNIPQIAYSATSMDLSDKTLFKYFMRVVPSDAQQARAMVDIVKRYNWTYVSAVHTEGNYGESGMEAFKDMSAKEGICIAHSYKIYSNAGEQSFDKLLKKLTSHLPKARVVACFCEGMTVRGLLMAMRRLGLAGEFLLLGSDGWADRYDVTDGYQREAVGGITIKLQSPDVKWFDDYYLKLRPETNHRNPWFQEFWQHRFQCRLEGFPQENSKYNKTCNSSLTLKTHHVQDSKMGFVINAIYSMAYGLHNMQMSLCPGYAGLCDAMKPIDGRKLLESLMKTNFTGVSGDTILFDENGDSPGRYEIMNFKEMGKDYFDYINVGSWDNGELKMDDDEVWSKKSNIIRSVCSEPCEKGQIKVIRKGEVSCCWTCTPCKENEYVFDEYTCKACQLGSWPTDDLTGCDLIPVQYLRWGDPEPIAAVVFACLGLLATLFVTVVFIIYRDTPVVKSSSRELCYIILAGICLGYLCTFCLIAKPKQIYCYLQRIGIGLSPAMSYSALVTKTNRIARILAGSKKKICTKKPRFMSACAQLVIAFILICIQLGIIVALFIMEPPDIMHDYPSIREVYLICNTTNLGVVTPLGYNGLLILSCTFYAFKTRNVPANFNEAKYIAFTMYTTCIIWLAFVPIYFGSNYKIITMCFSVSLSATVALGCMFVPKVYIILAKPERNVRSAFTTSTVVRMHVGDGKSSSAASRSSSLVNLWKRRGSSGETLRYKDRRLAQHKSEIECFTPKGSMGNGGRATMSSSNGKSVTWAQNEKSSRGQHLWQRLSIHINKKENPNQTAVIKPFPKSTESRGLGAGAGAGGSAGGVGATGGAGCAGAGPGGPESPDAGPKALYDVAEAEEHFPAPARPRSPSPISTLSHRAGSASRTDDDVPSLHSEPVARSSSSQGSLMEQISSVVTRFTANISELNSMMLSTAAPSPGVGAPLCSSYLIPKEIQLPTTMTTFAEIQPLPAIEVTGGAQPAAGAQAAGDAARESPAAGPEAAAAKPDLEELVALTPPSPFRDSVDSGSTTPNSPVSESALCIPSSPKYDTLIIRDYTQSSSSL

On to `Fc1cc(F)c(F)c(N2CCc3oc(-c4ccccn4)nc3C2)c1` [Compound 188, 2-(Pyridin-2-yl)-5-(2,3,5-trifluorophenyl)-4,5,6,7-tetrahydrooxazolo[4,5-c]pyridine], for which, under “Table 2”, the IC50 was less than 1000 nM.

For `O=C(CN1CCc2nc(-c3ccccn3)oc2C1)c1ccc(F)cc1` [Compound 150, 1-(4-Fluorophenyl)-2-(2-(pyridin-2-yl)-6,7-dihydrooxazolo[5,4-c]pyridin-5(4H)-yl)ethanone], the IC50 (Table 2) is greater than 10000 nM.

For `N#Cc1cc(F)cc(N2CCCc3oc(-c4ncccn4)nc3C2)c1` [Compound 203, 3-Fluoro-5-(2-(pyrimidin-2-yl)-7,8-dihydro-4H-oxazolo[4,5-c]azepin-5(6H)-yl)benzonitrile], the IC50 (Table 2) was less than 1000 nM.

In the case of `Fc1cc(F)cc(N2CCCc3oc(-c4ccccn4)nc3C2)c1` [Compound 101, 5-(3,5-Difluorophenyl)-2-(pyridin-2-yl)-5,6,7,8-tetrahydro-4H-oxazolo[4,5-c]azepine], for the setting “Table 1”, the IC50 was less than 1000 nM.

In the case of `COc1ccc(-c2nc3c(o2)CCN(c2cnccn2)C3)cc1` [Compound 42, 2-(4-Methoxyphenyl)-5-(pyrazin-2-yl)-4,5,6,7-tetrahydrooxazolo[4,5-c]pyridine], the IC50 (Table 1) was greater than 10000 nM.

Turning to `N#Cc1cc(F)cc(N2CCCc3oc(-c4ccccn4)nc3C2)c1` [Compound 98, 3-Fluoro-5-(2-(pyridin-2-yl)-7,8-dihydro-4H-oxazolo[4,5-c]azepin-5(6H)-yl)benzonitrile], the IC50 (Table 1) was less than 1000 nM.

With `COc1ccccc1N1CCc2oc(-c3ccccn3)nc2C1` [Compound 177, 5-(2-Methoxyphenyl)-2-(pyridin-2-yl)-4,5,6,7-tetrahydrooxazolo[4,5-c]pyridine], the IC50 (Table 2) was less than 1000 nM.

Regarding `COc1ccc(-c2nc3c(o2)CCN(c2ncccc2C#N)C3)cc1` [Compound 43, 2-(2-(4-Methoxyphenyl)-6,7-dihydrooxazolo[4,5-c]pyridin-5(4H)-yl)nicotinonitrile], the IC50 (Table 1) is greater than 10000 nM.

In the case of `Fc1ccc(N2CCc3oc(-c4ccccn4)nc3C2)c(Cl)c1` [Compound 171, 5-(2-Chloro-4-fluorophenyl)-2-(pyridin-2-yl)-4,5,6,7-tetrahydrooxazolo[4,5-c]pyridine], the IC50 (Table 2) is less than 1000 nM.

On to `COc1cccc(N2CCc3oc(-c4ccccn4)nc3C2)c1` [Compound 127, 5-(3-methoxyphenyl)-2-(pyridin-2-yl)-4,5,6,7-tetrahydrooxazolo[4,5-c]pyridine], for which the IC50 (Table 2) is less than 1000 nM.

In the case of `Clc1cc(Cl)cc(N2CCc3oc(-c4ccccn4)nc3C2)c1` [Compound 162, 5-(3,5-Dichlorophenyl)-2-(pyridin-2-yl)-4,5,6,7-tetrahydrooxazolo[4,5-c]pyridine], the IC50 (Table 2) was less than 1000 nM.

Take `N#Cc1cc(F)cc(N2CCCc3oc(-c4cnccn4)nc3C2)c1` [Compound 141, 3-fluoro-5-(2-(pyrazin-2-yl)-7,8-dihydro-4H-oxazolo[4,5-c]azepin-5(6H)-yl)benzonitrile]: for the setting “Table 2”, the IC50 was less than 1000 nM.

Regarding `COc1cccc(-c2nc3c(o2)CCN(c2ncccc2C#N)C3)c1` [Compound 73, 2-(2-(3-Methoxyphenyl)-6,7-dihydrooxazolo[4,5-c]pyridin-5(4H)-yl)nicotinonitrile], the IC50 (Table 1) was greater than 10000 nM.

As for `N#Cc1cccc(-c2nc3c(o2)CCN(c2cccc(C#N)c2)C3)c1` [Compound 64, 3,3′-(6,7-Dihydrooxazolo[4,5-c]pyridine-2,5(4H)-diyl)dibenzonitrile], the IC50 (Table 1) is less than 1000 nM.

As to `N#Cc1cccc(N2CCc3nc(-c4ccccn4)oc3C2)c1` [Compound 1, 3-(2-(Pyridin-2-yl)-6,7-dihydrooxazolo[5,4-c]pyridin-5(4H)-yl)benzonitrile], where the note is “Table 1”, the IC50 was less than 1000 nM.

For the compound `N#Cc1cc(F)cc(N2CCc3nc(-c4ccccn4)oc3CC2)c1` [Compound 89, 3-Fluoro-5-(2-(pyridin-2-yl)-7,8-dihydro-4H-oxazolo[5,4-d]azepin-6(5H)-yl)benzonitrile], the IC50 (Table 1) was less than 1000 nM.

On to `Fc1ccc(N2CCCc3oc(-c4ccccn4)nc3C2)cc1Cl` [Compound 144, 5-(3-chloro-4-fluorophenyl)-2-(pyridin-2-yl)-5,6,7,8-tetrahydro-4H-oxazolo[4,5-c]azepine], for which, under “Table 2”, the IC50 was less than 1000 nM.

`Clc1cccc(Cl)c1N1CCc2oc(-c3ccccn3)nc2C1` [Compound 174, 5-(2,6-Dichlorophenyl)-2-(pyridin-2-yl)-4,5,6,7-tetrahydrooxazolo[4,5-c]pyridine]: where the note is “Table 2”, the IC50 was less than 1000 nM.

For the compound `Clc1cccc(N2CCc3oc(-c4ccccn4)nc3C2)c1Cl` [Compound 170, 5-(2,3-Dichlorophenyl)-2-(pyridin-2-yl)-4,5,6,7-tetrahydrooxazolo[4,5-c]pyridine], the IC50 (Table 2) is less than 1000 nM.

As to `Clc1ccccc1N1CCc2oc(-c3ccccn3)nc2C1` [Compound 156, 5-(2-Chlorophenyl)-2-(pyridin-2-yl)-4,5,6,7-tetrahydrooxazolo[4,5-c]pyridine], the IC50 (Table 2) was less than 1000 nM.

For `N#Cc1cccc(N2CCCc3nc(-c4ncccn4)oc3C2)c1` [Compound 92, 3-(2-(Pyrimidin-2-yl)-7,8-dihydro-4H-oxazolo[5,4-c]azepin-5(6H)-yl)benzonitrile], the IC50 (Table 1) is less than 1000 nM.

Regarding `Fc1ccc(-c2nc3c(o2)CCN(c2cccc(F)c2)C3)nc1` [Compound 124, 5-(3-fluorophenyl)-2-(5-fluoropyridin-2-yl)-4,5,6,7-tetrahydrooxazolo[4,5-c]pyridine], the IC50 (Table 2) was less than 1000 nM.

For `N#Cc1cc(N2CCc3oc(-c4ccccn4)nc3C2)cc(C(F)(F)F)c1` [Compound 32, 3-(2-(Pyridin-2-yl)-6,7-dihydrooxazolo[4,5-c]pyridin-5(4H)-yl)-5-(trifluoromethyl)benzonitrile], for the setting “Table 1”, the IC50 was less than 1000 nM.

Consider `Clc1cccc(-c2nc3c(o2)CCN(c2ccccn2)C3)c1` [Compound 40, 2-(3-Chlorophenyl)-5-(pyridin-2-yl)-4,5,6,7-tetrahydrooxazolo[4,5-c]pyridine], for which, under “Table 1”, the IC50 is less than 1000 nM.

In the case of `c1ccc(-c2nc3c(o2)CN(c2ccccn2)CC3)nc1` [Compound 2, 2,5-Di(pyridin-2-yl)-4,5,6,7-tetrahydro-oxazolo[5,4-c]pyridine], the IC50 (Table 1) is less than 10000 nM.

Turning to `N#Cc1nccnc1N1CCc2oc(-c3cccc(Cl)c3)nc2C1` [Compound 53, 3-(2-(3-Chlorophenyl)-6,7-dihydrooxazolo[4,5-c]pyridin-5(4H)-yl)pyrazine-2-carbonitrile], the IC50 (Table 1) was less than 1000 nM.

With `Clc1ccc(N2CCc3oc(-c4ccccn4)nc3C2)cc1` [Compound 157, 5-(4-Chlorophenyl)-2-(pyridin-2-yl)-4,5,6,7-tetrahydrooxazolo[4,5-c]pyridine], under “Table 2”, the IC50 was less than 1000 nM.

For the compound `N#Cc1cc(Cl)cc(N2CCc3oc(-c4ccccn4)nc3C2)c1` [Compound 186, 3-Chloro-5-(2-(pyridin-2-yl)-6,7-dihydrooxazolo[4,5-c]pyridin-5(4H)-yl)benzonitrile], the IC50 (Table 2) is less than 1000 nM.

Regarding `O=C(CN1CCc2oc(-c3ccccn3)nc2C1)c1ccc(F)cc1` [Compound 192, 1-(4-Fluorophenyl)-2-(2-(pyridin-2-yl)-6,7-dihydrooxazolo[4,5-c]pyridin-5(4H)-yl)ethanone], the IC50 (Table 2) was greater than 10000 nM.

Turning to `CC1(C)CN(c2ccc(F)cc2Cl)Cc2nc(-c3ccccn3)oc21` [Compound 196, 5-(2-Chloro-4-fluorophenyl)-7,7-dimethyl-2-(pyridin-2-yl)-4,5,6,7-tetrahydrooxazolo[4,5-c]pyridine], where the note is “Table 2”, the IC50 is greater than 10000 nM.

With `COc1ccc(F)cc1N1CCc2oc(-c3ccccn3)nc2C1` [Compound 179, 5-(5-Fluoro-2-methoxyphenyl)-2-(pyridin-2-yl)-4,5,6,7-tetrahydrooxazolo[4,5-c]pyridine], the IC50 (Table 2) is less than 1000 nM.

On to `Cc1nc(-c2nc3c(o2)CCCN(c2ccccn2)C3)cs1` [Compound 207, 2-(2-Methylthiazol-4-yl)-5-(pyridin-2-yl)-5,6,7,8-tetrahydro-4H-oxazolo[4,5-c]azepine], for which the IC50 (Table 2) was less than 10000 nM.

`N#Cc1cc(F)cc(N2CCc3nc(-c4ccccn4)[nH]c3C2)c1` [Compound 111, 3-Fluoro-5-(2-(pyridin-2-yl)-6,7-dihydro-3H-imidazo[4,5-c]pyridin-5(4H)-yl)benzonitrile]: the IC50 (Table 1) is greater than 10000 nM.

Take `Fc1cccc(N2CCc3oc(-c4ccncn4)nc3C2)c1` [Compound 119, 5-(3-fluorophenyl)-2-(pyrimidin-4-yl)-4,5,6,7-tetrahydrooxazolo[4,5-c]pyridine]: the IC50 (Table 2) is less than 10000 nM.

As for `Clc1cnccc1N1CCc2oc(-c3ccccn3)nc2C1` [Compound 184, 5-(3-Chloropyridin-4-yl)-2-(pyridin-2-yl)-4,5,6,7-tetrahydrooxazolo[4,5-c]pyridine], the IC50 (Table 2) was less than 10000 nM.

Consider `Fc1ccc(N2CCCc3oc(-c4ccccn4)nc3C2)cc1F` [Compound 197, 5-(3,4-Difluorophenyl)-2-(pyridin-2-yl)-5,6,7,8-tetrahydro-4H-oxazolo[4,5-c]azepine], for which the IC50 (Table 2) was less than 1000 nM.

Consider `c1ccc(-c2nc3c(o2)CCN(c2ncccn2)C3)nc1` [Compound 132, 2-(pyridin-2-yl)-5-(pyrimidin-2-yl)-4,5,6,7-tetrahydrooxazolo[4,5-c]pyridine], for which the IC50 (Table 2) was less than 10000 nM.

As to `N#Cc1ccnc(N2CCc3nc(-c4ccccn4)oc3C2)c1` [Compound 7, 2-(2-(Pyridin-2-yl)-6,7-dihydrooxazolo[5,4-c]pyridin-5(4H)-yl)isonicotinonitrile], the IC50 (Table 1) is less than 10000 nM.

Take `N#Cc1cc(N2CCCc3oc(-c4ccccn4)nc3C2)cc(F)c1F` [Compound 216, 2,3-Difluoro-5-(2-(pyridin-2-yl)-7,8-dihydro-4H-oxazolo[4,5-c]azepin-5(6H)-yl)benzonitrile]: the IC50 (Table 2) was less than 1000 nM.

As for `Cc1cc(-c2nc3c(o2)CCN(c2ccccn2)C3)on1` [Compound 79, 2-(3-Methylisoxazol-5-yl)-5-(pyridin-2-yl)-4,5,6,7-tetrahydrooxazolo[4,5-c]pyridine], the IC50 (Table 1) was greater than 10000 nM.

What is called IC50 is the concentration needed to halve the response being measured.
